IC50 data for one compound are collected here from US20090124640A1, “Pyrrolo[3,2-D]Pyrimidin-4-One Derivative as Myeloperoxidase Inhibitor” (ASTRAZENECA AB, priority 2006, published 2009).

This experiment addresses T1, human MPO (Homo sapiens, UniProt P05164).
T1 sequence (P05164 49-745): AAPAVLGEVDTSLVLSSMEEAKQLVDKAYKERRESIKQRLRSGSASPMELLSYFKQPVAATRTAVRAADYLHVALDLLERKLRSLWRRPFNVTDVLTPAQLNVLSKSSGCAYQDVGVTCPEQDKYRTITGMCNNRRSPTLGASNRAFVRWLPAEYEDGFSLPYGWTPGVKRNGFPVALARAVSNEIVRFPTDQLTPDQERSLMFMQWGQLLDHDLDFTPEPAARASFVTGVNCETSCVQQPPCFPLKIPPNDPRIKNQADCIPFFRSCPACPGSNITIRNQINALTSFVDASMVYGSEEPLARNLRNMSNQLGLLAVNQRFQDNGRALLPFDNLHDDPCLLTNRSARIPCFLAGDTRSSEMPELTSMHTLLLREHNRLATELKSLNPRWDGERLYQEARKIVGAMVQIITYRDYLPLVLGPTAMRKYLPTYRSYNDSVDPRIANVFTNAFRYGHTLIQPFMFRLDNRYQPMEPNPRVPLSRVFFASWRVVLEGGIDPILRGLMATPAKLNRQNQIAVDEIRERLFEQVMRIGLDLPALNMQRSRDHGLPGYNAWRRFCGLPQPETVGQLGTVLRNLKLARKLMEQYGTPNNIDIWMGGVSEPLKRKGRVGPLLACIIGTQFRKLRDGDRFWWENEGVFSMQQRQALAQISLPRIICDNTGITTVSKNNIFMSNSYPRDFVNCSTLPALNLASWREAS
The experiment can be described thus: MPO inhibition screen (TMB oxidation, absorbance). Particulars: at least one version of the screen (compound alone or with added tyrosine, 8 μM final); human MPO 2.5 nM, H2O2 100 μM, pH 6.5. The experiment is classed as biochemical. The protocol: Methods for the determination of MPO inhibitory activity are disclosed in patent application WO 02/090575. The pharmacological activity of compounds according to the invention was tested in the following screen in which the compound was either tested alone or in the presence of added tyrosine:
Assay buffer: 20 mM sodium/potassium phosphate buffer pH 6.5 containing 10 mM taurine and 100 mM NaCl.
Developing reagent: 2 mM 3,3′,5,5′-tetramethylbenzidine (TMB), 200 μM KI, 200 mM acetate buffer pH 5.4 with 20% DMF.
To 10 μl of diluted compounds in assay buffer, 40 μL of human MPO (final concentration 2.5 nM), with or without 20 μM tyrosine (final concentration, if present, 8 μM), was added and the mixture was incubated for 10 minutes at ambient temperature. Then 50 μl of H2O2 (final concentration 100 μM), or assay buffer alone as a control, were added. After incubation for 10 minutes at ambient temperature, the reaction was stopped by adding 10 μl 0.2 mg/ml of catalase (final concentration 18 μg/ml). The reaction mixture was left for an additional 5 minutes before 100 μl of TMB developing reagent was added. The amount of oxidised 3,3′,5,5′-tetramethylbenzidine formed was then measured after about 5 minutes using absorbance spectroscopy at about […]. IC50 values were then determined using standard procedures.

As for `O=c1[nH]c(=S)n(CCO)c2cc[nH]c12` [Example 1, 1-(2-Hydroxyethyl)-2-thioxo-1,2,3,5-tetrahydro-4H-pyrrolo[3,2-d]pyrimidin-4-one], the IC50 – broadly, the concentration that gives 50% inhibition – was under 5 µM.
